Assay results as given in patent publication US6469008B2, “(R)-hydroxynefazodone antipsychotic therapy” (Sepracor Inc., priority 1999, dated 2002).
pIC50: −log10 of the molar value.

Key:
[1] = molecular target: T1, norepinephrine uptake by rat hypothalamus synaptosomes (Rattus norvegicus, UniProt Q63380); test: Norepinephrine uptake functional assay; format: biochemical; details: [3H]-norepinephrine, read-out: Monoamine Neuronal Transport NE uptake (IC50)
T1 construct: tissue Cerep; host or cells: male Wistar rat hypothalamus synaptosomes
T1 sequence (Q63380 1-617): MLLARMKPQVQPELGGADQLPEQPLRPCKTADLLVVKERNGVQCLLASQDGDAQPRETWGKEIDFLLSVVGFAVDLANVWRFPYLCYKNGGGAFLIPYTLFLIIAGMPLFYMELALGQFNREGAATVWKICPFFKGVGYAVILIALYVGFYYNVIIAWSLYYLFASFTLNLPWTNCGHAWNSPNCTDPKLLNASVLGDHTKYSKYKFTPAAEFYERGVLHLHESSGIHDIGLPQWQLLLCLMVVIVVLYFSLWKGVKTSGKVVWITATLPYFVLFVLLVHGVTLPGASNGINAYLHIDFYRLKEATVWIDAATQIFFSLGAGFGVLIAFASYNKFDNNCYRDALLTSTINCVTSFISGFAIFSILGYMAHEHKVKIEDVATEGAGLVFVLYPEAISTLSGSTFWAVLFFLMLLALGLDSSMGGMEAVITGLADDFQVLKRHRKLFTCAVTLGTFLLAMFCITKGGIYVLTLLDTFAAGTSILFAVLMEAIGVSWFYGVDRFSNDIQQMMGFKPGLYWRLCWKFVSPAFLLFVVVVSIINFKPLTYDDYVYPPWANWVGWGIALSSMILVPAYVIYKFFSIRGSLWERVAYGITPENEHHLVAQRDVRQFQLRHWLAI
Protocol: Norepinephrine uptake functional assay
Characterization of norepinephrine uptake is performed using synaptosomes isolated at Cerep in a 0.32 M sucrose buffer from a male Wistar rat hypothalamus. The uptake of radiolabeled norepinephrine by synaptosomes (100 μg of proteins/point) is allowed by incubating them for 20 minutes at 37° C. in presence of test compounds and [3H]-norepinephrine (0.1 μCi/point). The experiment is performed in a deep well.
Synaptosomes and [3H]-norepinephrine are prepared in a Krebs buffer pH 7.4 containing 25 mM NaHCO3, 11 mM glucose and 50 μM ascorbic acid. This incubation buffer is oxygenated during 5 minutes before incubation. Basal control is incubated for 20 minutes at 4° C. in order to avoid any uptake. Following this incubation the uptake is stopped by filtration through an “unifilter 96-wells GFB” Packard plate washed with Krebs buffer containing 25 mM NaHCO3 in order to eliminate the free [3H]-norepinephrine. The radioactivity associated to the synaptosomes retained onto the unifilter corresponding to the uptake is then measured with a microplate scintillation counter Topcount, Packard using a scintillation liquid microscint 0, Packard.
[See Perovics and Müiller, op.cit. (1995).]

[2] = molecular target: T2, 5-HT7 (Homo sapiens, UniProt P34969); test: 5-HT7 receptor binding; details: read-out: Serotonin Receptor Binding 5-HT7 (IC50)
T2 construct: host or cells: membrane preparations
T2 sequence (P34969 whole entry, species assumed): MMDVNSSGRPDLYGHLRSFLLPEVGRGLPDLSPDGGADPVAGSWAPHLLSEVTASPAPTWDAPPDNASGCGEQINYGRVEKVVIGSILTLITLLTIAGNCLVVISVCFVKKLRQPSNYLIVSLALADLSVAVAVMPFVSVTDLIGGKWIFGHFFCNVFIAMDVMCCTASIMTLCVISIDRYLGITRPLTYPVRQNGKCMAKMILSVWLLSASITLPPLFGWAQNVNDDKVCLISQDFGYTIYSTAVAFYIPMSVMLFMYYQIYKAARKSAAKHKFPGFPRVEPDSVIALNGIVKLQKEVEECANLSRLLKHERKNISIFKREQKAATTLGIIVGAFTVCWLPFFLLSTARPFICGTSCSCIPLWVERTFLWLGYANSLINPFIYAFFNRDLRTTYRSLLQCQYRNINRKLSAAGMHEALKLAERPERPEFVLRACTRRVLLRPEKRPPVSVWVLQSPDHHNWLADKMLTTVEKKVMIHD
Protocol: (§1) Dopamine and serotonin receptor binding assays were performed in a standard manner with the incubation of membrane preparations in an assay buffer in the presence of a known radioactively labeled specific ligand for the receptor subtypes. Nonspecific binding was determined by assessing binding in the presence of excess ligand. Specific binding was measured as the total labeled ligand bound after the nonspecific binding was subtracted. The effect of the tested agents was measured by determining the competition for the receptor binding across a concentration range. Subsequently, an IC50 was determined for the agents tested. More specific details are provided below for several of the assays performed.

[3] = molecular target: T3, 5-HT1D (Homo sapiens, UniProt P28221); test: 5-HT1D receptor binding; details: read-out: Serotonin Receptor Binding 5-HT1D (IC50)
T3 construct: host or cells: membrane preparations
T3 sequence (P28221 whole entry, species assumed): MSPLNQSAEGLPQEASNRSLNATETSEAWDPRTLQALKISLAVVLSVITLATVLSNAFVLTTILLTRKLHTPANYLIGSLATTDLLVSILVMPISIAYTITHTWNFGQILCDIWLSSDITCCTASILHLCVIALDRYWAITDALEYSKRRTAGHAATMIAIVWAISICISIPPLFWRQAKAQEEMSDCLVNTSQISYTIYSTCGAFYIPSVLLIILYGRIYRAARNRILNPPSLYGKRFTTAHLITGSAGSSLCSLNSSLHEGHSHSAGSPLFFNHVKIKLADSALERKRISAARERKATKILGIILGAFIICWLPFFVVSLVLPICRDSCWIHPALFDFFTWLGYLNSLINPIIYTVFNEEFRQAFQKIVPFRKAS
Protocol: as §1

[4] = AUC and Cmax increasing more than proportionally with dose and upon multiple dosing; cited from earlier work
[5] = molecular target: T4, Human D4.4 receptor (Homo sapiens, UniProt P21917); test: Dopamine D4 receptor binding (head prints D); details: head prints only D
T4 construct: expressed in transfected cells; host or cells: CHO cells
T4 sequence (P21917 1-419): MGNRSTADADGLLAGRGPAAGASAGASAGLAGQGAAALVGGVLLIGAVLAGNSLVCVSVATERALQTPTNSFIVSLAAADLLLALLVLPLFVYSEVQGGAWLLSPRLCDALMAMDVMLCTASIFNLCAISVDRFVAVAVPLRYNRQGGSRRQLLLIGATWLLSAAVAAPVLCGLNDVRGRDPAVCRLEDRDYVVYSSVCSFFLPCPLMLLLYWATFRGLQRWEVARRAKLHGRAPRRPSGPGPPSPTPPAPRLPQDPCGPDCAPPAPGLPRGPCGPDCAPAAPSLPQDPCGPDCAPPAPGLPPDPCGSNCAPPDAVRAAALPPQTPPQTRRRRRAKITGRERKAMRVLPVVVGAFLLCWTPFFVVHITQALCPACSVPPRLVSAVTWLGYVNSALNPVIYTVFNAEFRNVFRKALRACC
Protocol: as §1
Aliquots of transfected CHO cell membrane preparations corresponding to 100 μg protein are incubated for 60 min at 22° C. in 250 μl of 50 mM Tris-HCl buffer (pH 7.4) containing 120 mM NaCl, 5 mM KCl, 5 mM MgCl2, 1 mM EDTA, 0.3 nM [^3H]spiperone and increasing concentrations of the competing drugs. Nonspecific binding is determined in the presence of 10 μM (+)butaclamol. After incubation, the samples are filtered rapidly under vacuum through glass fiber filters (GF/B, Packard) and rinsed several times with ice-cold 50 mM Tris-HCl using a cell harvester (Packard). Bound radioactivity is measured with a scintillation counter (Topcount, Packard) using a liquid scintillation cocktail (Microscint 0, Packard). The reference compound for this assay is clozapine.

[6] = molecular target: T5, Human 5-HT2C receptor (Homo sapiens, UniProt P28335); test: 5-HT2C receptor binding; details: [3H]mesulergine, transfected CHO cell membranes; read-out: Serotonin Receptor Binding 5HT2C (IC50)
T5 construct: expressed in transfected cells; host or cells: CHO cells
T5 sequence (P28335 33-458): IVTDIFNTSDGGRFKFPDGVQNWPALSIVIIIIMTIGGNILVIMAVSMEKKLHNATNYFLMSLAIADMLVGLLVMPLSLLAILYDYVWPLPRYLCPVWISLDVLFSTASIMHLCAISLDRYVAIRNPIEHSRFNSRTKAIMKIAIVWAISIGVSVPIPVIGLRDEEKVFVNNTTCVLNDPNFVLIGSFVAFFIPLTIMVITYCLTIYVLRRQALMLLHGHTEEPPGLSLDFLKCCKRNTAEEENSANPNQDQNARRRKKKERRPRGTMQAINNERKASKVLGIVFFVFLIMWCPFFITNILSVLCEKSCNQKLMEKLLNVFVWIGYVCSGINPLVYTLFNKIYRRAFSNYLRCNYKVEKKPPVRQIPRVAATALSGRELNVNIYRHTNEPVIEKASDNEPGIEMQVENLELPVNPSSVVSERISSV
Protocol: as §1
Aliquots of transfected CHO cell membrane preparations corresponding to 5-10 μg protein are incubated for 30 min at 37° C. in 250 μl of 50 mM Tris-HCl buffer (pH 7.7) containing 10 μM pargyline, 0.7 nM [^3H]mesulergine and increasing concentrations of the competing drugs. Nonspecific binding is determined in the presence of 1 μM mesulergine. After incubation, the samples are filtered rapidly under vacuum through glass fiber filters (GF/B, Packard) and rinsed several times with ice-cold 50 mM Tris-HCl using a cell harvester (Packard). Bound radioactivity is measured with a scintillation counter (Topcount, Packard) using a liquid scintillation cocktail (Microscint 0, Packard). The reference compound for this assay is mesulergine.

[7] = molecular target: T6, D1 (Homo sapiens, UniProt P21728); test: Dopamine D1 receptor binding
T6 construct: host or cells: membrane preparations
T6 sequence (P21728 whole entry): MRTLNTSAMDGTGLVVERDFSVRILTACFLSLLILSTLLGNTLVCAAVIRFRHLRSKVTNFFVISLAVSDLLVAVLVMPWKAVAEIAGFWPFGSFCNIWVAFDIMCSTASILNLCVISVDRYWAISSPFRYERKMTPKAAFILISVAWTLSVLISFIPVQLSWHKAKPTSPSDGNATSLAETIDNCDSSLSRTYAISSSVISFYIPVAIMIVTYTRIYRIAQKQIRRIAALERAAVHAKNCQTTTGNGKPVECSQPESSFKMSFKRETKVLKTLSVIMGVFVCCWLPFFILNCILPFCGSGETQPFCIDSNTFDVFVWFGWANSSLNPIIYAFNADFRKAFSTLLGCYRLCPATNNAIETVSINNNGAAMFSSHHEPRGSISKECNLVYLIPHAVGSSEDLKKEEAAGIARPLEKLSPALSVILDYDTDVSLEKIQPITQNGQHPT
Protocol: as §1

[8] = tested on: 5-HT2 receptors versus dopamine receptors; test: Selectivity from dopamine and serotonin receptor binding data; details: compared with nefazodone or S-hydroxynefazodone
Protocol: as §1

| pIC50 [1] | pIC50 [2] | pIC50 [3] | pIC50 [5] | pIC50 [6] | pIC50 [7] | selectivity for 5-HT family of receptors, in particular 5-HT2, versus dopamine receptors (D2 and D4) [8] | SMILES | kinetics for dose and time (AUC and Cmax) [4] |
| --- | --- | --- | --- | --- | --- | --- | --- | --- |
| 6.00 | 7.21 | 5.94 | 5.88 | 7.34 | 5.64 |  | CC(O)c1nn(CCCN2CCN(c3cccc(Cl)c3)CC2)c(=O)n1CCOc1ccccc1 (racemic) [(RS)-OH, 2-[3-[4-(3-chlorophenyl)1-piperazinyl]propyl]-5-(1-hydroxyethyl)-2,4-dihydro-4-(phenoxyethyl)-3H-1,2,4-triazol-3-one, reference compound] | nonlinear kinetics |
| 5.92 | 7.15 | 5.70 | 5.72 | 7.48 | 5.77 | interacts more selectively | C[C@@H](O)c1nn(CCCN2CCN(c3cccc(Cl)c3)CC2)c(=O)n1CCOc1ccccc1 [(R)-OH, (R)-hydroxynefazodone] |  |
| 5.82 | 7.22 | 6.63 | 6.00 | 7.47 | 5.64 |  | C[C@H](O)c1nn(CCCN2CCN(c3cccc(Cl)c3)CC2)c(=O)n1CCOc1ccccc1 [(S)-OH, (S)-2-{3-[4-(3-Chlorophenyl)-1-piperazinyl]propyl}-4-(2-phenoxyethyl)-5-[1-(hydroxy)-ethyl]-2,4-dihydro-[1,2,4]triazol-3-one] |  |
